{
  "source": "patent US20100292085A1",
  "about": "“Methods and compositions for characterization of HSD1 inhibitors” (priority 2005, published 2010)",
  "key": {"[1]": {"target": "T1, HSD1 (Homo sapiens, UniProt P28845)", "T1 sequence (P28845 whole entry)": "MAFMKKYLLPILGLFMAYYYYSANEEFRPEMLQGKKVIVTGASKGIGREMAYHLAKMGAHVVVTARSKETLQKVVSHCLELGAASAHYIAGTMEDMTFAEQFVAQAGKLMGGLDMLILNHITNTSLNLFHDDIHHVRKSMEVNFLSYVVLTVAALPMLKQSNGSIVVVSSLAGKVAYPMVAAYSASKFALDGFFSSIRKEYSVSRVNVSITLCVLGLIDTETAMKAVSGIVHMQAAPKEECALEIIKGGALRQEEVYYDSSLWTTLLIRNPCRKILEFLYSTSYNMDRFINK", "test": "Cortisone signature genes measured by RT-PCR (TAQman) in HepG2/HSD1 cells", "assay_type": "cell-based", "set-up": "expressed in transfected cells", "description": "(§1) HepG2 cells stably transfected with human HSD1, as previously described in Example 1, were plated in either 96 well or 24 well tissue culture plates. Cells were plated at a density of 6.25×10^5 cells/well on 24 well plates in 500 μl DMEM culture medium prepared as previously described. For the 96 well plates, the cells were plated at a density of 1×10^5 cells per well in 100 μl culture medium. The cells were incubated at 37° C. in a 5% CO2 atmosphere. After 24 hours, the culture medium was removed and the cells were pre-incubated with, either 250 μl (24 well plate) or 50 μl (96 well plate), Culture Medium containing 2× concentration of HSD1 inhibitor (14 μM) or vehicle for 20 min at 37° C. in a 5% CO2 atmosphere. Culture Medium (either 250 μl or 50 μl) containing 1000 nM cortisone (500 nM final concentration) or vehicle, and 20 μM forskolin (10 μM final concentration), was next added to the cells. The cells were further incubated for 20 hrs at 37° C. in a 5% CO2 atmosphere. All conditions were run in duplicates.\nHepG2/HSD1 cells were lysed using Trizol reagent (Life Technologies, Grand Island, N.Y.). Total RNA was isolated from HepG2/HSD1 lysate using the RNeasy 96-Kit (Qiagen Inc., Valencia, Calif.) following the manufacturer's instructions, including the optional on-column removal of contaminating DNA step by RNase-free DNase I treatment. The RNA was reverse-transcribed to single stranded cDNA using random hexamer primers with TAQman reverse transcription reagents (Applied Biosystems, Foster City, Calif.).\nThe sequences of the TAQman primers and probes used to detect the target cDNAs were synthesized by Qiagen Operon (Alameda, Calif.) and are shown in Tables 8 and 9.\nOligonucleotide probes were labeled with the 6-FAM fluorophore at the 5′ end (FAM) and a non-fluorescent quencher at the 3′ end (NFQ). Real-time PCR was performed on human HepG2/HSD1 cDNA using the TaqMan Universal PCR Master Mix (Applied Biosystems, Foster City, Calif.) and appropriate primer/probe sets on an ABI Prism 7900HT Sequence Detection System (Applied Biosystems, Foster City, Calif.) in the 384-well format according to manufacturer's instructions. The levels of mRNA were normalized to the amount of 18S RNA detected in each sample using the Eukaryotic 18S rRNA Endogenous Control from Applied Biosystems. Levels of the target mRNAs in treated cells were calculated relative to the untreated cells."}, "[2]": {"tested_on": "HepG2/HSD1 cells", "test": "Off-target effects by microarray: number of genes changed, no cortisone", "assay_type": "cell-based, human", "conditions": "number of genes changed vs forskolin alone", "description": "(§2) Total RNA isolated from cultured cell samples was used to make fluorescently labeled cRNA that was hybridized to DNA oligonucleotide microarrays as described previously (Hughes et al., supra., Marton et al., 1998, Nat. Med. 4:1293-301). Briefly, 4 μg of total RNA from each cell culture sample was used to synthesize dsDNA through RT. cRNA was produced by in vitro transcription and labeled postsynthetically with Cy3 or Cy5. Two populations oflabeled cRNA, a control population from vehicle/forskolin treated cells and an experimental population, i.e., cortisone/forskolin plus vehicle or plus HSD1 test compound, were compared with each other by competitive hybridization to microarrays. Two hybridizations were done with each cRNA sample pair using a fluorescent dye reversal strategy.\nThe human microarrays used in this study contained 23,653 oligonucleotide probes corresponding to individual genes or expressed sequence tags. […]\n(§3) After hybridization, arrays were scanned and fluorescence intensities for each probe were recorded. […] For each gene sequence present on the microarrays, statistical significance of differential gene expression was determined by calculating P values according to the following equation: […]\nHSD1 compounds were evaluated using microarray gene expression measurements obtained from HepG2/HSD1 cells under conditions where the cells were not treated with cortisone. […]"}, "[3]": {"target": "T1, HSD1", "test": "In vivo efficacy of HSD1 inhibitor", "set-up": "host or cells: in vivo"}, "[4]": {"tested_on": "off-target signature genes (SCD, DHCR7, ACLY, FBXO9, HEY1)", "test": "Off-target signature genes measured by RT-PCR (TAQman) in HepG2/HSD1 cells", "assay_type": "cell-based, human", "description": "as §1, with “All conditions were run in duplicates.” left out\nOligonucleotide probes were labeled with the 6-FAM fluorophore at the 5′ end (FAM) and a non-fluorescent quencher at the 3′ end (NFQ). […] The levels of mRNA were normalized to the amount of 18S RNA detected in each sample using the Eukaryotic 18S rRNA Endogenous Control from Applied Biosystems. Levels of the target mRNAs in treated cells were calculated relative to the untreated cells."}, "[5]": {"tested_on": "HepG2/HSD1 cells", "test": "Identification of the off-target response signature by microarray (Table 6)", "assay_type": "cell-based, human", "excerpt": "This off-target gene signature was not detected in other active HSD1 inhibitor compounds with in vivo efficacy. Monitoring for the off-target signature identified by 3-(2-chlorophenyl)-4-methyl-5-(4-pentylbicyclo[2.2.2]oct-1-yl)-4H-1,2,4-triazole in the HepG2 cells over-expressing HSD1 can improve characterization and selection of candidate HSD1 compounds prior to in vivo efficacy testing.\nas §2, with “strategy. […]” for “strategy.”"}, "[6]": {"target": "T1, HSD1", "test": "Direct measurement of HSD1 activity: 3H-cortisone conversion to cortisol by HPLC", "assay_type": "cell-based", "set-up": "expressed in transfected cells", "description": "Oxidoreductase Method: [1,2-^3H]-cortisone (48.7 Ci/mmol) was added to a final concentration of 20 nM to HepG2/HSD1 (2×10^6 cells/well in 6-well plates) and incubated for 1.5, 3, 6 and 22 hrs at 37° C. in culture medium (Dulbecco's Modified Eagle Medium with high glucose containing 2 mM L-glutamine, 10% fetal bovine serum, 100 U/ml penicillin, 100 μg/ml Streptomycin, 10 μM sodium pyruvate, 100 μM non-essential amino acids, 0.003 N NaOH and 0.8 mg/ml Geneticin). The samples (100 μl aliquots) were then extracted with 300 μl ethyl acetate and the upper, organic phases were dried. The dried organic extracts were then resuspended either in 100 μl DMSO for analysis by reverse-phase HPLC (buffer A=10% methanol/90% water; buffer B=90% methanol/10% water using a gradient from 20-45% Buffer B; YMC Combiscreen Pro C18 50 mm×4.6 mm column; flow rate 2.5 mL/min).\nHSD1 activity was measured by spiking the incubation medium with ^3H-cortisone. After 21 hrs post compound treatment, conversion of the cortisone to cortisol was assessed by HPLC analysis."}, "[7]": {"tested_on": "SCD", "test": "Off-target activity by SCD expression level (microarray)", "assay_type": "cell-based, human", "conditions": "HepG2/HSD1 cells, 10 μM forskolin, no cortisone, vs forskolin alone; microarray probe", "description": "as §2\nEach HSD1 inhibitor compound treated sample was compared to a forskolin alone cell sample. The HepG2/HSD1 cells used in these experiments were not contacted with cortisone."}, "[8]": {"target": "T1, HSD1", "test": "HSD1 signature reversal activity: microarray of cortisone signature genes in HepG2/HSD1 cells", "assay_type": "cell-based", "set-up": "expressed in transfected cells", "conditions": "slope of linear regression vs cortisone treatment alone (1.0 = no inhibition), Table 2 genes, 500 nM cortisone, 10 μM forskolin, inhibitor added as 2× concentration (14 μM), 20 hrs", "description": "HepG2 human hepatoma cells stably transfected with human 11βHSD1 (HepG2/HSD1 cells) were plated at 2×10^6 cells per well on 6-well plates in 1 ml Culture Medium (DMEM with 2 mM L-Glutamine, 10% charcoal-dextran-treated FBS, 100 U/ml Penicillin, 100 μg/ml streptomycin, 10 μM sodium pyruvate, 100 μM non-essential amino acids, 0.003 N NaOH) at 37° C./5% CO2. After 24 hours, the Culture Medium was replaced with 500 μl Culture Medium containing 1000 nM cortisone (500 nM final concentration) and 20 μM forskolin (10 μM final concentration). The cells were incubated for 20 hrs at 37° C./5% CO2. Samples were run in triplicates. […]\nas §3\nGene expression changes in the cortisone signature genes were analyzed to further assess the degree to which HSD1-agents cause a reversal in the magnitude of the cortisone signature due to the degree of inhibition of HSD1 activity. Gene expression levels of the cortisone signature genes were measured in cortisone treated HepG2/HSD1 cells and HepG2/HSD1 cells treated with an HSD1-agent affecting HSD1 activity. […]"}, "[9]": {"conditions": "RT-PCR, 500 nM cortisone + 10 μM forskolin, 20 hrs, inhibitor added as 2× concentration (14 μM)"}},
  "data": [
    {"smiles": "CCCCCC12CCC(c3nnc(-c4ccccc4Cl)n3C)(CC1)CC2", "note": "[3-(2-chlorophenyl)-4-methyl-5-(4-pentylbicyclo[2.2.2]oct-1-yl)-4H-1,2,4-triazole]", "values": [
      {"measurement": "G6PC Gene Transcript (Fold Change Relative to Vehicle Alone)", "setting": "[1]; [9]", "result": 1.0, "unit": "Fold Change"},
      {"measurement": "Homer-2 Gene Transcript (Fold Change Relative to Vehicle Alone)", "setting": "[1]; [9]", "result": 1.5, "unit": "Fold Change"},
      {"measurement": "LIPG Gene Transcript (Fold Change Relative to Vehicle Alone)", "setting": "[1]; [9]", "result": 2.7, "unit": "Fold Change"},
      {"measurement": "PGC Gene Transcript (Fold Change Relative to Vehicle Alone)", "setting": "[1]; [9]", "result": 0.7, "unit": "Fold Change"},
      {"measurement": "TAT Gene Transcript (Fold Change Relative to Vehicle Alone)", "setting": "[1]; [9]", "result": 1.2, "unit": "Fold Change"},
      {"measurement": "Average of five genes (cortisone signature, Fold Change Relative to Vehicle Alone)", "setting": "[1]; average of Homer-2, G6PC, PGC, TAT, LIPG", "result": 1.4, "unit": "Fold Change"},
      {"measurement": "off-target activity (in words, from Table 5 microarray data)", "setting": "[2]", "result": "high levels of off-target activity"},
      {"measurement": "efficacy in vivo (in words)", "setting": "[3]", "result": "failed to achieve significant efficacy in vivo"},
      {"measurement": "Average of five genes (off-target signature, Fold Change Relative to Vehicle Alone)", "setting": "[4]", "result": 1.7, "unit": "Fold Change"},
      {"measurement": "off-target signature (Table 6) in HepG2 cell line over-expressing HSD1 (in words)", "setting": "[5]; independent of cortisone treatment", "result": "exhibited off-target activity"},
      {"measurement": "off-target response signature, number of gene markers", "setting": "[5]; p-value<0.01, no fold change cut-off, common to three replicate studies, compound + forskolin", "result": 330},
      {"measurement": "Percent Conversion to Cortisol", "setting": "[6]; 3H-cortisone spiked medium, 21 hrs post compound treatment, cortisone/forskolin, HPLC", "result": 2, "unit": "%"},
      {"measurement": "Percent Conversion to Cortisol normalized to cortisone/forskolin value", "setting": "[6]; value in square brackets, cortisone/forskolin alone = 1.0", "result": 0.05},
      {"measurement": "Log ratio of SCD gene expression", "setting": "[7]", "result": 0.45},
      {"measurement": "HSD1 Signature Reversal Activity Values", "setting": "[8]", "result": 0.03}
    ]}
  ]
}
